The values that follow come from US12459940B2, “Oxazole compound as multi-targeted inhibitor of IRAK4 and BTK” (SHANGHAI FOSUN PHARMACEUTICAL INDUSTRIAL DEVELOPMENT CO., …, priority 2019, dated 2025).

One assay concerns the target T1, human IRAK4 (Homo sapiens, UniProt Q9NWZ3).
T1 construct: purchased Reaction Biology Corp
T1 sequence (Q9NWZ3 1-460): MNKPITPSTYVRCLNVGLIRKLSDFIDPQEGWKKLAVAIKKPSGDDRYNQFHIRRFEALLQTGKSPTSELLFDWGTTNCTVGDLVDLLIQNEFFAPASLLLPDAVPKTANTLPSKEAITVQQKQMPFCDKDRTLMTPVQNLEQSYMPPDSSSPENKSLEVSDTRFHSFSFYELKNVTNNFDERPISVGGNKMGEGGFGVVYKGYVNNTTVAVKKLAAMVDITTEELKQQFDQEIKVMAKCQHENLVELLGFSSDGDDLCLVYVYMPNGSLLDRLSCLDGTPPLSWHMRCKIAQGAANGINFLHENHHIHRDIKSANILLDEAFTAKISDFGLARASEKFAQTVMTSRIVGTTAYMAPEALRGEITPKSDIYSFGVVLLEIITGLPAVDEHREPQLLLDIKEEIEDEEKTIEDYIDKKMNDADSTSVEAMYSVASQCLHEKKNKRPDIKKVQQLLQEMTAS
The experiment in a line: In vitro IRAK4 kinase activity, 33P isotope-labeled kinase activity assay (Reaction Biology Corp). The settings on record: 33P-ATP, 120 minutes at room temperature; read-out: IRAK4/IC50. Type of assay: biochemical. The method, then:
The IC50 values were determined using ^33P isotope-labeled kinase activity assay (Reaction Biology Corp) to evaluate the inhibitory ability of the tested compounds on human IRAK4.
Buffer conditions: 20 mM Hepes (pH 7.5), 10 mM MgCl2, 1 mM EGTA, 0.02% Brij35, 0.02 mg/mL BSA, 0.1 mM Na3VO4, 2 mM DTT, 1% DMSO.
Test procedure: At room temperature, the tested compound was dissolved in DMSO to prepare a 10 mM solution for later use. The substrate was dissolved in a newly prepared buffer solution, and the tested IRAK4 kinase was added thereto and mixed evenly. The DMSO solution dissolved with the tested compound was added to the above reaction mixture mixed evenly using acoustic technique (Echo 550). After incubation for 15 minutes, ^33P-ATP was added to initiate the reaction.

Assay [1] has as its system OCI-LY10 human B-cell lymphoma cells. The experiment in a line: OCI-LY10 cell proliferation inhibition (CellTiter-Glo). Type of assay: cell-based. The settings on record: OCI-Ly10, 72 h, treated for 3 days. The method, then:
OCI-LY10 human B-cell lymphoma cells were cultured in a 37° C., 5% CO2 incubator. The composition of medium was IMDM (GIBCO, Cat #12440053); the supplementary compositions were 20% FBS (Hyclone, Cat #SH30084.03); 1% PenStrep (Thermo, Cat #SV30010).
(§1) The tumor cell lines OCI-LY10 and TMD8 were used to detect the effect of the compound on inhibiting tumor cell proliferation in vitro. The tumor cell line was cultured in a 37° C., 5% CO2 incubator according to the culture conditions shown, and passaged regularly, then the cells in the logarithmic growth phase were taken, counted, and spread in a 96-well plate (the cells in each well were adjusted to an appropriate concentration, a total of […] per well was added). After incubating overnight in a 37° C., 5% CO2 incubator, drugs with different concentration gradients (10 μL of drug solution was added) were added and treated for 3 days, then 50 μL of CellTiter-Glo working solution was added to each well, and the cell plate was wrapped with aluminum foil to avoid light. The culture plate was shaken on an orbital shaker for 2 minutes to induce cell lysis, and placed at room temperature for 10 minutes to stabilize the luminescence signal, then the luminescence signal was detected on the 2104 EnVision plate reader.
(§2) The Inhibition rate (IR) of the tested compound was calculated using the following formula: IR (%)=(1−(RLU compound−RLU blank control)/(RLU solvent control−RLU blank control))*100%.
(§3) The inhibition rates of different concentrations of the compounds were calculated in Excel, and then the inhibition curves were made by GraphPad Prism software and the related parameters were calculated, including the minimum inhibition rate, the maximum inhibition rate and IC50.

The test system of assay [2] is TMD8 human B-cell lymphoma cells. The experiment in a line: TMD-8 cell proliferation inhibition (CellTiter-Glo). In kind it is cell-based. The settings on record: TMD8, 72 h, treated for 3 days. The method, then:
TMD8 human B-cell lymphoma cells were cultured in a 37° C., 5% CO2 incubator. The composition of medium was RPMI1640 (GIBCO, Cat #22400-089); the supplementary compositions were 10% FBS (Hyclone, Cat #SH30084.03); 1% PenStrep (Thermo, Cat #SV30010).
as §1, §2, §3
For orientation: Cellular ATP, detected with luciferase, serves as a proxy for viable cell number.

Another assay has as its system OCI-LY3 cell line. The assay is described as follows: OCI-LY3 cell proliferation inhibition (CTG). As to conditions: Homo sapiens, incubated for 72 hours. In kind it is cell-based. How it is done: The tumor cell line used in this experiment was provided by Nanjing Cobioer Biotechnology Co., Ltd. See Table 13 below for specific information.
The tumor cell lines OCI-LY3 were used to detect the effect of the compound on inhibiting tumor cell proliferation in vitro. The OCI-LY3 cell line was cultured in the corresponding medium at 37° C. and 5% CO2, and the logarithmic growth phase cells were used in the experimental plating. The cells were collected and centrifuged at 800 rpm for 5 minutes, and the culture medium was re-suspended and spread in a 96-well plate. After incubating overnight in a 37° C., 5% CO2 incubator, the cells with different concentration gradients (10 μL of prepared diluent of the tested compound) were incubated for 72 hours, and the cell culture plates were incubated with CTG reagent at room temperature and away from light for 30 minutes, and then recovered to room temperature. 100 μL/hole of CTG solution was added into the biosafety cabinet away from light, and the plate shaker was shaken and mixed evenly away from light for 2 minutes, and incubated at room temperature away from light for 10 minutes. The luminescence values were read and recorded using the Perkin Elmer Envision 2104 MuLtilabel Reader.
The results of luminescence values measured at each drug concentration were normalized with the luminescence values of the blank control group, and the ratio of this value to the DMSO group was taken as the cell inhibition rate (%). Using GraphPad software, the logarithm of drug concentration (log drug concentration) versus inhibition rate was plotted, and the software automatically fitted and calculated IC50 value and 95% confidence limit value by log (inhibitor) vs. normalized response algorithm of nonlinear regression.

A further assay concerns TNF-α secretion. The experiment in a line: In vivo pharmacodynamic study of LPS-induced TNF-α secretion in SD rats. As to conditions: SD rat, oral. The method, then: SD rats were orally given the solvent, the positive drug dexamethasone (DEX, 0.5 mg/kg) and the tested compound, and LPS (1 mg/kg) was intraperitoneally injected 0.5 hours after the administration. Two hours after LPS injection, the animals were euthanized by CO2, and blood samples were collected from the heart and placed in an anticoagulant tube containing EDTA-K2, then partial anticoagulated blood was centrifuged to separate the plasma and the plasma was frozen at −80° C.
The plasma was taken out of the refrigerator at −80° C., thawed at room temperature, and the concentration of TNF-α in the plasma was detected according to the ELISA kit instructions.
The experimental data were expressed by Mean±standard error (Mean±SEM), and the level of TNF-α was expressed by One-way ANOVA, and p<0.05 was considered as a significant difference. The result of in vivo pharmacodynamic study of TNF-α secretion in SD rats induced by […] (LPS) are shown in FIG. 1

Structures are written as SMILES.

Turning to `Cc1cc(-c2nc(C(=O)Nc3cn4cc(CCC(C)(C)O)nc4cc3N3CCCCC3)co2)ccn1` [WX001], the IC50 on human IRAK4 is 1 nM; in assay [1] it was 128 nM; in assay [2], 300 nM; with OCI-LY3 cell line it was 1290 nM. Further, in the assay on TNF-α secretion (LPS 1 mg/kg intraperitoneal 0.5 hours after administration, plasma 2 hours after LPS), the “inhibitory effect on TNF-α secretion induced by LPS” value was “significant inhibitory effect”. Further, the “efficacy on LPS-induced TNF-α secretion compared with dexamethasone” value in the assay with TNF-α secretion (dose of 20 mpk) is reported as “equivalent to the efficacy of dexamethasone (DEX) at a dose of 0.5 mpk”.
